Several values for one entry are separate records, joined by “and”; a condition that tells them apart may be missing. Equal entries are not always repeated. Structures can show the parent of a compound that is named as a salt. Where two headings read alike, the source gives them in different places.
Experiment: Pharmacokinetic study in mice (plasma and brain), with estimated free drug concentrations
Format: in vivo, mouse
Conditions: for Brain Concentration (total) / Free Brain Concentration / Free Plasma Concentration / Plasma Concentration (total) / concentration at 0.083 h / concentration at 0.25 h / concentration at 0.5 h / concentration at 1 h / concentration at 2 h: mice, individual animals; for Brain Concentration (total) / Free Brain Concentration / Free Plasma Concentration / Plasma Concentration (total) / Total concentration / concentration at 0.083 h / concentration at 0.25 h / concentration at 0.5 h / concentration at 1 h / concentration at 2 h: 10 mg/kg s.c.; for Total concentration: Mice
[1] = Brain, male C57BL/6 mice, single s.c. 10 mg/kg
[2] = Plasma, male C57BL/6 mice, single s.c. 10 mg/kg

CCC1CC2CC3c4[nH]c5ccc(O)cc5c4CCN(C2)C13 (centres unmarked) [Noribogaine, Noribogaine hydrochloride]
Brain Concentration (total) (0.083 h, 10 mg/kg): 6.61 µmol/L and 8.95 µmol/L | Free Brain Concentration (0.083 h, 10 mg/kg): 0.78 µmol/L and 1.057 µmol/L | Free Plasma Concentration (0.083 h, 10 mg/kg): 2258 nM and 2308 nM and 1083 nM | Plasma Concentration (total) (0.083 h, 10 mg/kg): 4.83 µmol/L and 2.26 µmol/L and 4.72 µmol/L | Brain Concentration (total) (0.25 h, 10 mg/kg): 14.1 µmol/L and 14.82 µmol/L | Free Brain Concentration (0.25 h, 10 mg/kg): 1.664 µmol/L and 1.749 µmol/L | Free Plasma Concentration (0.25 h, 10 mg/kg): 2314 nM and 3247 nM | Plasma Concentration (total) (0.25 h, 10 mg/kg): 6.79 µmol/L and 6.1 µmol/L | Brain Concentration (total) (0.5 h, 10 mg/kg): 18.56 µmol/L and 18.39 µmol/L | Free Brain Concentration (0.5 h, 10 mg/kg): 2.19 µmol/L and 2.17 µmol/L | Free Plasma Concentration (0.5 h, 10 mg/kg): 2561 nM and 3671 nM | Plasma Concentration (total) (0.5 h, 10 mg/kg): 7.68 µmol/L and 6.99 µmol/L | Brain Concentration (total) (1 h, 10 mg/kg): 11.3 µmol/L and 11.04 µmol/L | Free Brain Concentration (1 h, 10 mg/kg): 1.334 µmol/L and 1.303 µmol/L | Free Plasma Concentration (1 h, 10 mg/kg): 1924 nM and 1899 nM | Plasma Concentration (total) (1 h, 10 mg/kg): 3.97 µmol/L and 4.11 µmol/L | Brain Concentration (total) (2 h, 10 mg/kg): 4.77 µmol/L and 6.38 µmol/L | Free Brain Concentration (2 h, 10 mg/kg): 0.563 µmol/L and 0.752 µmol/L | Free Plasma Concentration (2 h, 10 mg/kg): 1638 nM and 938 nM | Plasma Concentration (total) (2 h, 10 mg/kg): 1.96 µmol/L and 2.67 µmol/L | Brain Concentration (total) (4 h, 10 mg/kg): 2.93 µmol/L and 1.78 µmol/L and 5.54 µmol/L | Free Brain Concentration (4 h, 10 mg/kg): 0.346 µmol/L and 0.211 µmol/L and 0.654 µmol/L | Free Plasma Concentration (4 h, 10 mg/kg): 1067 nM and 684 nM and 289 nM | Plasma Concentration (total) (4 h, 10 mg/kg): 1.43 µmol/L and 0.61 µmol/L and 2.23 µmol/L | Brain Concentration (total) (8 h, 10 mg/kg): 0.81 µmol/L and 0.72 µmol/L and 0.21 µmol/L | Free Brain Concentration (8 h, 10 mg/kg): 0.095 µmol/L and 0.085 µmol/L and 0.024 µmol/L | Free Plasma Concentration (8 h, 10 mg/kg): 47 nM and 125 nM and 114 nM | Plasma Concentration (total) (8 h, 10 mg/kg): 0.26 µmol/L and 0.24 µmol/L and 0.1 µmol/L | Brain Concentration (total) (24 h, 10 mg/kg): 0.03 µmol/L and 0 µmol/L (2×) | Free Brain Concentration (24 h, 10 mg/kg): 0.004 µmol/L and 0 µmol/L (2×) | Free Plasma Concentration (24 h, 10 mg/kg): 2 nM and 4 nM and 0 nM | Plasma Concentration (total) (24 h, 10 mg/kg): 0.01 µmol/L and 0 µmol/L (2×) | Total concentration (Brain): 17.18 µmol/L | CLf [1]: 13.76 mL/min/kg | T1/2 [1]: 1.71 h | Total concentration (Plasma): 6.68 µmol/L | CLf [2]: 31.87 mL/min/kg | T1/2 [2]: 2.76 h | CLf (brain, male C57BL/6 mice, s.c. 10 mg/kg): 13.76 mL/min/kg | concentration at 0.083 h (male, C57BL/6, mouse, brain, sc, 10 mg/kg, 0.083 h, read-out: Brain Concentration (total)): 6750 nM | concentration at 0.083 h (male, C57BL/6, mouse, brain, sc, 10 mg/kg, 0.083 h, read-out: Free Brain Concentration): 797 nM | concentration at 0.25 h (male, C57BL/6, mouse, brain, sc, 10 mg/kg, 0.25 h, read-out: Brain Concentration (total)): 8040 nM | concentration at 0.25 h (male, C57BL/6, mouse, brain, sc, 10 mg/kg, 0.25 h, read-out: Free Brain Concentration): 949 nM | concentration at 0.5 h (male, C57BL/6, mouse, brain, sc, 10 mg/kg, 0.5 h, read-out: Brain Concentration (total)): 14600 nM | concentration at 0.5 h (male, C57BL/6, mouse, brain, sc, 10 mg/kg, 0.5 h, read-out: Free Brain Concentration): 1720 nM | concentration at 1 h (male, C57BL/6, mouse, brain, sc, 10 mg/kg, 1 h, read-out: Brain Concentration (total)): 11700 nM | concentration at 1 h (male, C57BL/6, mouse, brain, sc, 10 mg/kg, 1 h, read-out: Free Brain Concentration): 1380 nM | concentration at 2 h (male, C57BL/6, mouse, brain, sc, 10 mg/kg, 2 h, read-out: Brain Concentration (total)): 7820 nM | concentration at 2 h (male, C57BL/6, mouse, brain, sc, 10 mg/kg, 2 h, read-out: Free Brain Concentration): 923 nM | Cmax (male, C57BL/6, mouse, brain, sc, 10 mg/kg, Brain (brain conc. as ng/g), male C57BL/6 mice, single s.c. 10 mg/kg): 5090 ng/mL

From publication PMC11415492 (Nature Communications, 2024)
